Like-named read-outs stand apart in the source and are kept apart here. Numbered stars: 1 amine (or outer) side, 2 acyl side, 3 side chain; on linkers, the order of the positions; unused ones are H or OH. Square brackets hold non-standard residues; d marks the D form. Side chains are listed from the residue outwards. Peptide text beside a SMILES is read from it. * marks the point of attachment. γGlu = O=C(O)[C@H](CCC(=O)[*:2])N[*:1]; αMeF = C[C@](N)(Cc1ccccc1)C(=O)O; αMeK = C[C@](N)(CCCCN)C(=O)O; Lauroyl = CCCCCCCCCCCC(=O)*; αMeS = C[C@](N)(CO)C(=O)O; Nle = CCCC[C@H](N)C(=O)O; AEEA = NCCOCCOCC(=O)O; Aib = CC(C)(N)C(=O)O
Tests used:
[1] = target: T1, recombinant Neprilysin (Homo sapiens, UniProt P08473); assay: Proteolytic resistance to neprilysin (% remaining peptide, RP-HPLC AUC); type: in vitro ADME; conditions: t = 0 (baseline); 37° C., pH 8.3; enzyme:peptide ~1:33 for non-lipidated, ~1:2.5 for lipidated peptides
T1 construct: purchased R&D Systems 1182-ZNC-010
Protocol: Ratio enzyme (units):peptide (moles) ˜1:33. […] Ratio enzyme (units):peptide (moles) ˜1:2.5.
15 μL aliquots (˜15 ng initial peptide) of the peptide-enzyme mixture were periodically withdrawn (t=0, 30 mins, 1 hr, 2 hr, 4 hr, 8 hr, 24 hr) and quenched immediately by addition to an equal volume (15 μL) of 5% TFA (v/v) in 1:1 water/acetonitrile to arrest proteolytic activity. 20 μL aliquots (˜10 ng initial peptide) were analyzed by LC/MS and/or analytical RP-HPLC as follows: LC/MS method: Agilent Polaris C8-A column (4.6×100 mm, 3 micron) eluted with a linear binary gradient of 10-90% MeCN (0.1% TFA v/v) in water (0.1% TFA v/v) over 30 mins at 1.5 mL min-1 at ambient temperature with detection by both UV absorption at 210 nm and ionization using a Waters 3100 mass detector (ESI+ mode). Peptide fragments deriving from enzymatic hydrolysis were identified by molecular weight, allowing location of the site of cleavage. Analytical RP-HPLC method: Agilent Polaris C8-A column (4.6×100 mm, 3 micron) eluted with a linear binary gradient of 10-90% MeCN (0.1% TFA v/v) in water (0.1% TFA v/v) over either 10 or 15 mins at 1.5 mL min^−1 at 40° C. with detection by UV absorption at 210 nm. Manual integration (AUC) allowed estimation of remaining intact peptide over the time course of the experiment.
25 μL aliquots (˜6 μg initial peptide) were analyzed by LC/MS and/or analytical RP-HPLC as follows: LC/MS method: Agilent Polaris C8-A column (4.6×100 mm, 3 micron) eluted with a linear binary gradient of 10-90% MeCN (0.1% TFA v/v) in water (0.1% TFA v/v) over 30 mins at 1.5 mL min^−1 at ambient temperature with detection by both UV absorption at 210 nm and ionization using a Waters 3100 mass detector (ESI^+ mode). Peptide fragments deriving from enzymatic hydrolysis were identified by molecular weight, allowing location of the site of cleavage. Analytical RP-HPLC method: Agilent Polaris C8-A column (4.6×100 mm, 3 micron) eluted with a linear binary gradient of 10-90% MeCN (0.1% TFA v/v) in water (0.1% TFA v/v) over either 10 or 15 mins at 1.5 mL min^−1 at 40° C. with detection by UV absorption at 210 nm. Manual integration (AUC) allowed estimation of remaining intact peptide over the time course of the experiment.

[2] = target: T2, porcine pancreatic pepsin (Sus scrofa, UniProt P00791); assay: Proteolytic resistance to pepsin (% remaining intact peptide, RP-HPLC AUC); type: in vitro ADME; conditions: t = 0; 37° C., pH 2.0
T2 construct: purchased Sigma P7012
Protocol: Pepsin: Lyophilized porcine pancreatic pepsin (Sigma: P7012) was reconstituted to afford a solution of 200 μg/mL (˜500 units/mL) in assay buffer (0.1 M HCl, pH 2.0) to give the enzyme stock solution. […] Ratio enzyme (units):peptide (moles) ˜1:6. […] Ratio enzyme (units):peptide (μmoles) ˜2:1.
Lyophilized porcine pancreatic pepsin (Sigma: P7012) was reconstituted to […] (˜500 units/mL) in assay buffer ([…], pH 2.0) to give the enzyme stock solution.

[3] = target: porcine pancreatic trypsin (Sus scrofa, UniProt P00761); assay: Proteolytic resistance to trypsin (% remaining intact peptide, RP-HPLC AUC); type: in vitro ADME; conditions: t = 0; 37° C., pH 7.8
Protocol: Trypsin: Lyophilized porcine pancreatic trypsin (Sigma: T1426) was reconstituted to afford a solution of 100 μg/mL (˜300 units/mL) in assay buffer (50 mM Tris, 10 mM CaCl2), 150 mM NaCl, 1 mM HCl, adjusted to pH 7.8) to give the enzyme stock solution. […] Ratio enzyme (units):peptide (μmoles) ˜1:11. […] Ratio enzyme (units):peptide (μ moles) ˜1.2:1.
Lyophilized porcine pancreatic trypsin (Sigma: T7409) was reconstituted to 200 μg/mL (˜300 units/mL) in assay buffer (50 mM Tris, 10 mM CaCl2), 150 mM NaCl, 1 mM HCl, adjusted to pH 7.8) to give the enzyme stock solution. […] 15 μL aliquots (˜15 μg initial peptide) of the peptide-enzyme mixture were periodically withdrawn (t=0, 30 mins, 1 hr, 2 hr, 4 hr, 8 hr, 24 hr) and quenched immediately by addition to an equal volume (15 μL) of 5% TFA (v/v) in 1:1 water/acetonitrile to arrest proteolytic activity. 20 μL aliquots (˜10 μg initial peptide) were analysed by LC/MS and/or analytical RP-HPLC as follows: LC/MS method: Agilent Polaris C8-A column (4.6×100 mm, 3 micron) eluted with a linear binary gradient of 10-90% MeCN (0.1% TFA v/v) in water (0.1% TFA v/v) over 30 mins at 1.5 mL min^−1 at ambient temperature with detection by both UV absorption at 210 nm and ionization using a Waters 3100 mass detector (ESI^+ mode). Peptide fragments deriving from enzymatic hydrolysis were identified by molecular weight, allowing location of the site of cleavage. Analytical RP-HPLC method: Agilent Polaris C8-A column (4.6×100 mm, 3 micron) eluted with a linear binary gradient of 10-90% MeCN (0.1% TFA v/v) in water (0.1% TFA v/v) over either 10 or 15 mins at 1.5 mL min^−1 at 40° C. with detection by UV absorption at 210 nm. Manual integration (AUC) allowed estimation of remaining intact peptide over the time course of the experiment.
Lyophilized porcine pancreatic trypsin (Sigma: T7409) was reconstituted to 200 μg/mL (˜300 units/mL) in assay buffer (50 mM Tris, 10 mM CaCl2), 150 mM NaCl, 1 mM HCl, adjusted to pH 7.8) to give the enzyme stock solution. […] 25 μL aliquots (˜17 μg initial peptide) of the peptide-enzyme mixture were periodically withdrawn (t=0, 30 mins, 1 hr, 2 hr, 4 hr, 8 hr, 24 hr) and quenched immediately by addition to an equal volume (25 μL) of 5% TFA (v/v) in 1:1 water/acetonitrile to arrest proteolytic activity. 25 μL aliquots (˜8 μg initial peptide) were analysed by LC/MS and/or analytical RP-HPLC as follows: LC/MS method: Agilent Polaris C8-A column (4.6×100 mm, 3 micron) eluted with a linear binary gradient of 10-90% MeCN (0.1% TFA v/v) in water (0.1% TFA v/v) over 30 mins at 1.5 mL min^−1 at ambient temperature with detection by both UV absorption at 210 nm and ionization using a Waters 3100 mass detector (ESI^+ mode). Peptide fragments deriving from enzymatic hydrolysis were identified by molecular weight, allowing location of the site of cleavage. Analytical RP-HPLC method: Agilent Polaris C8-A column (4.6×100 mm, 3 micron) eluted with a linear binary gradient of 10-90% MeCN (0.1% TFA v/v) in water (0.1% TFA v/v) over either 10 or 15 mins at 1.5 mL min^−1 at 40° C. with detection by UV absorption at 210 nm. Manual integration (AUC) allowed estimation of remaining intact peptide over the time course of the experiment.

[4] = system: FASSIF/Pancreatin® activated with 100 μg/mL human enterokinase; assay: Proteolytic resistance to FASSIF/Pancreatin following full zymogen activation with enterokinase; type: in vitro ADME; conditions: t = 0; 37° C.
Protocol: A fresh suspension of FASSIF/P (Fasted-State Simulated Intestinal Fluid+USP Pancreatin®) was prepared according to that described by Galia, Nicolaides, Hörter, Lobenberg, Reppas and Dressman: Pharm. […] To the resulting preparation was added human enterokinase (100 μg/mL) to ensure the potential for full zymogen activity of the mixture which was used immediately without storage. Peptides for evaluation (1.0 mg, ˜250 nmoles) were initially dissolved in pre-warmed FASSIF without Pancreatin® (200 μL) to which was added pre-warmed fresh FASSIF/Pancreatin® ([…]) to initiate potential digestion. Following momentary vortexing of the Eppendorf reaction tube the mixture was incubated at 37° C. in a thermostatic waterbath for the duration of the experiment. 25 μL aliquots of the co-incubated peptide-enzyme mixture were periodically withdrawn (t=0, 5 m, 10 m, 15 m, 30 m, 1 h, 2 h) and quenched immediately by addition to a solution of 10% TFA in 1:1 water/acetonitrile (75 μL) to arrest proteolytic activity.

[5] = target: T3, human glucagon receptor (GCGR) (Homo sapiens, UniProt P47871); assay: cAMP assay, human GCGR cells; type: cell-based; conditions: Table 9, bis-lipidated peptides
T3 construct: expressed in transfected cells; host or cells: HEK293 cells or CHO cells
Summary of the method: (§1)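 Peptide-stimulated cAMP measured by two-step HTRF after a 30 min room-temperature incubation with receptor-expressing cells (hGLP-1R, hGIPR at 1×10^5 cells/ml; hGCGR at 2×10^5 cells/ml). Duplicate dilutions; EC50 from 4-parameter logistic fit of % Delta F.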

[6] = target: T4, human glucose-dependent insulinotropic peptide receptor (GIPR) (Homo sapiens, UniProt P48546); assay: cAMP assay, human GIPR cells; type: cell-based; conditions: Table 9, bis-lipidated peptides
T4 construct: expressed in transfected cells; host or cells: HEK293 cells or CHO cells
T4 sequence (P48546 22-466): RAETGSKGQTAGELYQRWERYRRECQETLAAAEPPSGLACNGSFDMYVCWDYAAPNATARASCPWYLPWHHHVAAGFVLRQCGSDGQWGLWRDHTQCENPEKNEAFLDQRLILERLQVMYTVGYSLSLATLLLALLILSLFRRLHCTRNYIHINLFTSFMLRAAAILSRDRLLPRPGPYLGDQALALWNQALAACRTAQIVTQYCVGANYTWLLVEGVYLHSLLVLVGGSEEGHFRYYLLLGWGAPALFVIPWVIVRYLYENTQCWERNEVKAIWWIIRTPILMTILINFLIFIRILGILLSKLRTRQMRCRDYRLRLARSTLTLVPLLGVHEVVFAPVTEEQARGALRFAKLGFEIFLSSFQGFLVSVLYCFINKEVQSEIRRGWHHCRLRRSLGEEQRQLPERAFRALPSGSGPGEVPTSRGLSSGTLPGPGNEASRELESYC
Summary of the method: as §1

[7] = Proteolytic resistance to α-chymotrypsin (% remaining intact peptide, RP-HPLC AUC); conditions: recombinant α-chymotrypsin in assay buffer, pH 7.8
Protocol: (§3) Ratio enzyme (units):peptide (μmoles) ˜1:33. […] Ratio enzyme (units):peptide (μmoles) ˜1:2.5.
(§4) 15 μL aliquots (˜15 μg initial peptide) of the peptide-enzyme mixture are periodically withdrawn (t=0, 30 mins, 1 hr, 2 hr, 4 hr, 8 hr, 24 hr) and quenched immediately by addition to an equal volume (15 μL) of 5% TFA (v/v) in 1:1 water/acetonitrile to arrest proteolytic activity. 20 μL aliquots (˜10 μg initial peptide) are analysed by LC/MS and/or analytical RP-HPLC as follows: LC/MS method: Agilent Polaris C8-A column (4.6×100 mm, 3 micron) elutes with a linear binary gradient of 10-90% MeCN (0.1% TFA v/v) in water (0.1% TFA v/v) over 30 mins at 1.5 mL min^−1 at ambient temperature with detection by both UV absorption at 210 nm and ionization using a Waters 3100 mass detector (ESI^+ mode). Peptide fragments deriving from enzymatic hydrolysis are identified by molecular weight, allowing location of the site of cleavage. Analytical RP-HPLC method: Agilent Polaris C8-A column (4.6×100 mm, 3 micron) elutes with a linear binary gradient of 10-90% MeCN (0.1% TFA v/v) in water (0.1% TFA v/v) over either 10 or 15 mins at 1.5 mL min^−1 at 40° C. with detection by UV absorption at 210 nm. Manual integration (AUC) allows estimation of remaining intact peptide over the time course of the experiment.
(§5) 25 μL aliquots (˜6 μg initial peptide) are analysed by LC/MS and/or analytical RP-HPLC as follows: LC/MS method: Agilent Polaris C8-A column (4.6×100 mm, 3 micron) elutes with a linear binary gradient of 10-90% MeCN (0.1% TFA v/v) in water (0.1% TFA v/v) over 30 mins at 1.5 mL min^−1 at ambient temperature with detection by both UV absorption at 210 nm and ionization using a Waters 3100 mass detector (ESI±mode). Peptide fragments deriving from enzymatic hydrolysis are identified by molecular weight, allowing location of the site of cleavage. Analytical RP-HPLC method: Agilent Polaris C8-A column (4.6×100 mm, 3 micron) elutes with a linear binary gradient of 10-90% MeCN (0.1% TFA v/v) in water (0.1% TFA v/v) over either 10 or 15 mins at 1.5 mL min^−1 at 40° C. with detection by UV absorption at 210 nm. Manual integration (AUC) allows estimation of remaining intact peptide over the time course of the experiment.

[8] = system: recombinant α-chymotrypsin; assay: as above; conditions: t = 0; 37° C., pH 7.8
Protocol: as §3, §4, §5

[9] = Proteolytic resistance to fasted-state simulated intestinal fluid (FASSIF/Pancreatin); type: in vitro ADME; conditions: 37° C., read-out: Percentage remaining intact peptide (AUC by RP-HPLC) upon incubation with fasted-state simulated intestinal fluid (FASSIF/P); for remaining at 5 min, […]: t = 5 m; for remaining at 10 min, […]: t = 10 m; for remaining at 0.25 h, […]: t = 15 m; for remaining at 0.5 h, […]: t = 30 m; for remaining at 1 h, […]: t = 1 h; for remaining at 2 h, […]: t = 2 h
Protocol: (§2) A fresh suspension of FASSIF/P (Fasted-State Simulated Intestinal Fluid+USP Pancreatin®) was prepared according to that described by Galia, Nicolaides, Hörter, Lobenberg, Reppas and Dressman: Pharm. Res. 15 (1998) 698-705. The resulting preparation is proteolytically equivalent to ˜375 units/mL (375 kU/L) and was used immediately without storage. Peptides for evaluation (1.0 mg, ˜250 nmoles) were initially dissolved in pre-warmed FASSIF without Pancreatin® (200 μL) to which was added pre-warmed fresh FASSIF/Pancreatin® (100 μL) to initiate potential digestion. Following momentary vortexing of the Eppendorf reaction tube the mixture was incubated at 37° C. in a thermostatic waterbath for the duration of the experiment. 25 μL aliquots of the co-incubated peptide-enzyme mixture were periodically withdrawn (t=0, 5 m, 10 m, 15 m, 30 m, 1 h, 2 h) and quenched immediately by addition to a solution of 10% TFA in 1:1 water/acetonitrile (75 μL) to arrest proteolytic activity.

[10] = system: FASSIF/P (Fasted-State Simulated Intestinal Fluid+USP Pancreatin®); assay: as above; type: in vitro ADME; conditions: t = 0; 37° C.
Protocol: as §2

[11] = target: T5, human GLP-1 receptor (GLP-1R) (Homo sapiens, UniProt P43220); assay: cAMP assay, human GLP-1R cells; type: cell-based; conditions: Table 9, bis-lipidated peptides
T5 construct: expressed in transfected cells; host or cells: HEK293 cells or CHO cells
Summary of the method: as §1

[12] = first replicate, read-out: Primary assay EC50 Gluc-R (n1)
[13] = second replicate, read-out: Primary assay EC50 Gluc-R (n2)
[14] = first replicate, read-out: Primary assay EC50 GIP-R (n1)
[15] = second replicate, read-out: Primary assay EC50 GIP-R (n2)

T3 sequence (P47871 26-477): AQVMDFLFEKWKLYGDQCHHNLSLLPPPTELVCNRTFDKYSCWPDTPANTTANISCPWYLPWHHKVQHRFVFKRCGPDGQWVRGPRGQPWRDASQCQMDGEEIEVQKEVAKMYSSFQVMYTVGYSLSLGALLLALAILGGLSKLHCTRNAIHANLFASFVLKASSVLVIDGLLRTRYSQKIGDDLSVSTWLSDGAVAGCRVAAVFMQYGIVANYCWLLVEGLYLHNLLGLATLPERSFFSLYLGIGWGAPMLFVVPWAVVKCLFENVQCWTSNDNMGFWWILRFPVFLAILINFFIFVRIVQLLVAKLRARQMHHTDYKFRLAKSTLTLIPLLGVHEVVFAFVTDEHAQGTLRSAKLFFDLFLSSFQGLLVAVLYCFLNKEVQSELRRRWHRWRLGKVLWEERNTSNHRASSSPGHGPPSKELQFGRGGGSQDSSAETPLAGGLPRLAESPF
T5 sequence (P43220 24-463): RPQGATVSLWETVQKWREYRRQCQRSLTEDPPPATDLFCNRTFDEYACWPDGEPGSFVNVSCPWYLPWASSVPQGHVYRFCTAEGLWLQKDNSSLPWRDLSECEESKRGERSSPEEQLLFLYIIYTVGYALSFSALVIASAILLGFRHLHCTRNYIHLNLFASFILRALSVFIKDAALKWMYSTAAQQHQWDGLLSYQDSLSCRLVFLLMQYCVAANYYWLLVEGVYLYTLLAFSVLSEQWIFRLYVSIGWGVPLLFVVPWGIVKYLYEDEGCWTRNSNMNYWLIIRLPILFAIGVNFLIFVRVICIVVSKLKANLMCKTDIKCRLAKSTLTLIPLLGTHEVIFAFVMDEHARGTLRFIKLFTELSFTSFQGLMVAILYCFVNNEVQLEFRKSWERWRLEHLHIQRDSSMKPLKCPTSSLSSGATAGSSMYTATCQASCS
Sequence of porcine pancreatic trypsin (P00761 9-231): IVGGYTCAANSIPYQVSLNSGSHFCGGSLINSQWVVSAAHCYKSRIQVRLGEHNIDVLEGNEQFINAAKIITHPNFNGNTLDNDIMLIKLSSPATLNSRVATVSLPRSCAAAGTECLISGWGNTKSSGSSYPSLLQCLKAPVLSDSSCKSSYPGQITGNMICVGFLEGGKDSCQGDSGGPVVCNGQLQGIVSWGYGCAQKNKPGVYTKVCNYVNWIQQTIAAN
T1 sequence (P08473 whole entry): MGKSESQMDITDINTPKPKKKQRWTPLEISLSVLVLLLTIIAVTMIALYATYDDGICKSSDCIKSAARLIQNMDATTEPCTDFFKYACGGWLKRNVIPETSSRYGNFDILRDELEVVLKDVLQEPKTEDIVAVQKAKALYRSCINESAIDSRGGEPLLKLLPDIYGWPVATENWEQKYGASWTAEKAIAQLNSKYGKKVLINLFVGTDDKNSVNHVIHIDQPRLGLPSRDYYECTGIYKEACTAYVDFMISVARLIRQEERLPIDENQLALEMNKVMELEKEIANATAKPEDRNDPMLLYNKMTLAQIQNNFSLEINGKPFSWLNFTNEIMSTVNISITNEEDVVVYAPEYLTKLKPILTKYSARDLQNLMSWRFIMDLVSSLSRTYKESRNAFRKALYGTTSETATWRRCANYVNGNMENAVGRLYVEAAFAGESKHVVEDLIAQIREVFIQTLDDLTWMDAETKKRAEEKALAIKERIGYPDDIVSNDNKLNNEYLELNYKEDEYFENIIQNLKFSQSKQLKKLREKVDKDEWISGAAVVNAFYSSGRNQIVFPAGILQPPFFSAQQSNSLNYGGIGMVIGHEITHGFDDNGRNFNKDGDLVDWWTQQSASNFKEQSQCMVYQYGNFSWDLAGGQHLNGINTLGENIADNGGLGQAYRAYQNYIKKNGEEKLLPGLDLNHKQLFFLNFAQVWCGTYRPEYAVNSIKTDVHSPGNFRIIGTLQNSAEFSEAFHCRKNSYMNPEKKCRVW
T2 sequence (P00791 60-385): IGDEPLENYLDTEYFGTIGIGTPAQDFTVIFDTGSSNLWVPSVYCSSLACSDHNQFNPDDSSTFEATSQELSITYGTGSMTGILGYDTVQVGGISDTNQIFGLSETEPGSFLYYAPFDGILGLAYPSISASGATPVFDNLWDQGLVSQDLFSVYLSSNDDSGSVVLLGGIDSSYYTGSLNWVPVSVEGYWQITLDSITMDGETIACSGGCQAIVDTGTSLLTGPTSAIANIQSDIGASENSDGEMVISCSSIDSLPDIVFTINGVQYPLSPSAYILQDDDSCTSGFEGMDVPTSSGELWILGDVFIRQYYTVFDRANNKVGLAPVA

Row | SMILES | EC50 [5, 12] [nM] | EC50 [5, 13] [nM] | EC50 [6, 14] [nM] | EC50 [6, 15] [nM] | remaining at 5 min, […] [9] [%] | remaining at 10 min, […] [9] [%] | remaining at 0.25 h, […] [9] [%] | remaining at 0.5 h, […] [9] [%] | remaining at 1 h, […] [9] [%] | remaining at 2 h, […] [9] [%] | Percentage remaining intact peptide (AUC by RP-HPLC) upon incubation with fasted-state simulated intestinal fluid (FASSIF/P) [10] [%] | other results
1 | CCCCCCCCCCCC(=O)N[C@@H](CCC(=O)NCCOCCOCC(=O)NCCOCCOCC(=O)NCCCC[C@H](NC(=O)[C@H](C)NC(=O)[C@@H](NC(=O)[C@H](Cc1ccccc1)NC(=O)[C@H](CCC(=O)O)NC(=O)[C@](C)(CCCCN)NC(=O)[C@H](C)NC(=O)[C@H](C)NC(=O)[C@H](CCC(=O)O)NC(=O)CNC(=O)[C@H](CCC(=O)O)NC(=O)[C@H](CCCCNC(=O)COCCOCCNC(=O)COCCOCCNC(=O)CC[C@H](NC(=O)CCCCCCCCCCC)C(=O)O)NC(=O)[C@H](Cc1ccc(O)cc1)NC(=O)[C@H](CO)NC(=O)[C@](C)(CO)NC(=O)[C@@H](NC(=O)[C@H](CC(=O)O)NC(=O)[C@H](CO)NC(=O)[C@@H](NC(=O)[C@](C)(Cc1ccccc1)NC(=O)[C@H](CO)NC(=O)CNC(=O)[C@H](CCC(=O)O)NC(=O)C(C)(C)NC(=O)[C@@H](N)Cc1c[nH]cn1)[C@@H](C)O)C(C)C)[C@@H](C)CC)C(=O)N[C@H](C(=O)N[C@H](C(=O)N[C@@H](CCC(=O)O)C(=O)NCC(=O)NCC(N)=O)C(C)C)C(C)C)C(=O)O [compound 269] (H-H[Aib]EGS[αMeF]TSDV[αMeS]SYK([AEEA-AEEA-γGlu-Lauroyl])EGEAA[αMeK]EFIAK([AEEA-AEEA-γGlu-Lauroyl])VVEGG-NH2; N-terminus assumed) | ≥ 22.8 | ≥ 22.8 | ≥ 22.8 | ≥ 22.8 |  |  |  |  |  |  |  | Percentage remaining peptide (AUC at specified time-point by RP-HPLC) upon incubation with neprilysin, t = 0 [1]: 100%; Percentage remaining intact peptide (AUC by RP-HPLC) upon incubation with pepsin [2]: 100%; Percentage remaining intact peptide (AUC by RP-HPLC) upon incubation with trypsin [3]: 100%; Percentage remaining intact peptide (AUC by RP-HPLC) upon incubation with FASSIF activated with 100 μg/mL enterokinase [4]: 100%; remaining at 0.5 h [7]: 97.1%; remaining at 1 h [7]: 95.8%; remaining at 2 h [7]: 96%; remaining at 4 h [7]: 94.2%; remaining at 8 h [7]: 92.6%; remaining at 24 h [7]: 89.4%; Percentage remaining intact peptide (AUC by RP-HPLC) upon incubation with α-chymotrypsin [8]: 100%
2 | CCCCCCCCCCCC(=O)N[C@@H](CCC(=O)NCCOCCOCC(=O)NCCOCCOCC(=O)NCCCC[C@H](NC(=O)[C@H](C)NC(=O)[C@@H](NC(=O)[C@H](Cc1ccc(OC)cc1)NC(=O)[C@H](CCC(=O)O)NC(=O)[C@](C)(CCCCN)NC(=O)[C@H](C)NC(=O)[C@H](C)NC(=O)[C@H](CCC(=O)O)NC(=O)CNC(=O)[C@H](CCC(=O)O)NC(=O)[C@H](CC(C)C)NC(=O)[C@H](CCCCNC(=O)COCCOCCNC(=O)COCCOCCNC(=O)CC[C@H](NC(=O)CCCCCCCCCCC)C(=O)O)NC(=O)[C@H](CO)NC(=O)[C@](C)(CO)NC(=O)[C@@H](NC(=O)[C@H](CC(=O)O)NC(=O)[C@H](CO)NC(=O)[C@@H](NC(=O)[C@](C)(Cc1ccccc1)NC(=O)[C@H](CO)NC(=O)CNC(=O)[C@H](CCC(=O)O)NC(=O)C(C)(C)NC(=O)[C@@H](N)Cc1c[nH]cn1)[C@@H](C)O)C(C)C)[C@@H](C)CC)C(=O)N[C@H](C(=O)N[C@H](C(=O)N[C@@H](CCC(=O)O)C(=O)NCC(=O)NCC(N)=O)C(C)C)C(C)C)C(=O)O [compound 406] (H-H[Aib]EGS[αMeF]TSDV[αMeS]SK([AEEA-AEEA-γGlu-Lauroyl])LEGEAA[αMeK]EY(Me)IAK([AEEA-AEEA-γGlu-Lauroyl])VVEGG-NH2; N-terminus assumed) |  |  |  |  | 93.9 | 85.7 | 75.9 | 56.1 | 33.2 | 7.7 | 100 | 
3 | CCCCCCCCCCCC(=O)N[C@@H](CCC(=O)NCCOCCOCC(=O)NCCOCCOCC(=O)NCCCC[C@H](NC(=O)[C@H](C)NC(=O)[C@@H](NC(=O)[C@H](CCCC)NC(=O)[C@H](CCC(=O)O)NC(=O)[C@](C)(CCCCN)NC(=O)[C@H](C)NC(=O)[C@H](C)NC(=O)[C@H](CCC(=O)O)NC(=O)CNC(=O)[C@H](CCC(=O)O)NC(=O)[C@H](CC(C)C)NC(=O)[C@H](CCCCNC(=O)COCCOCCNC(=O)COCCOCCNC(=O)CC[C@H](NC(=O)CCCCCCCCCCC)C(=O)O)NC(=O)[C@H](CO)NC(=O)[C@](C)(CO)NC(=O)[C@@H](NC(=O)[C@H](CC(=O)O)NC(=O)[C@H](CO)NC(=O)[C@@H](NC(=O)[C@](C)(Cc1ccccc1)NC(=O)[C@H](CO)NC(=O)CNC(=O)[C@H](CCC(=O)O)NC(=O)C(C)(C)NC(=O)[C@@H](N)Cc1c[nH]cn1)[C@@H](C)O)C(C)C)[C@@H](C)CC)C(=O)N[C@H](C(=O)N[C@H](C(=O)N[C@@H](CCC(=O)O)C(=O)NCC(=O)NCC(N)=O)C(C)C)C(C)C)C(=O)O [compound 407] (H-H[Aib]EGS[αMeF]TSDV[αMeS]SK([AEEA-AEEA-γGlu-Lauroyl])LEGEAA[αMeK]E[Nle]IAK([AEEA-AEEA-γGlu-Lauroyl])VVEGG-NH2; N-terminus assumed) | ≥ 21.5 | ≥ 21.5 | ≥ 21.5 | ≥ 21.5 | 86.2 | 72.9 | 60.3 | 36.3 | 16.2 | 2.1 | 100 | EC50 ([11]; mean of n1 and n2, read-out: Primary assay EC50 Mean pM GLP-1R): 2 pM; EC50 ([11]; replicate n2, read-out: Primary assay EC50 GLP-1R n2): 2.01 pM
